Laboratory results reported in patent US7943632B2, “High potency dopaminergic treatment of neurological impairment associated with brain injury” (NeuroHealing Pharmaceuticals, Inc., priority 2003, dated 2011).

Legend:
[1] = system: Patient 01, traumatic brain injury (TBI); test: Prior drug treatment in clinical history of Patient 01; assay type: in vivo, human; settings: 15 mg/day for 12 days, before apomorphine study
[2] = system: patients of post-traumatic brain injury vegetative state (VS) and minimally conscious state (MCS); test: Apomorphine open label study, Coma/Near Coma (CNC) Scale; assay type: in vivo, human
[3] = system: patients of post-traumatic brain injury vegetative state (VS) and minimally conscious state (MCS); test: Apomorphine open label study, efficacy observations; assay type: in vivo, human
Protocol: The patients received the maximum tolerated dose, 12 to 16 hours per day, for up to 84 days (or shorter or longer as indicated). If the patient developed an adverse event, the dose was reduced or eliminated, according to the opinion of the attending physician. To prevent side effects from dopaminergic stimulation (such as nausea), domperidone was administered starting 24-72 hours (h) prior to initiation of the drug therapy.

[4] = cited from earlier work
[5] = system: patients of post-traumatic brain injury vegetative state (VS) and minimally conscious state (MCS); test: Apomorphine open label study, Disability Rating Scale; assay type: in vivo, human
[6] = cited from earlier work; remark: listed apart in the source
[7] = system: patients of post-traumatic brain injury vegetative state (VS) and minimally conscious state (MCS); test: Apomorphine open label study, safety observations; settings: Patient 02; approximately 4 months from the accident, dosing interrupted Day 47
[8] = system: patients of post-traumatic brain injury vegetative state (VS) and minimally conscious state (MCS); settings: in vivo
[9] = system: patients of post-traumatic brain injury vegetative state (VS) and minimally conscious state (MCS); test: Apomorphine open label study, Extended Glasgow Outcome Scale (GOS-E); assay type: in vivo, human
[10] = system: D2-like dopamine receptors; settings: cited from earlier work
[11] = Patient 01, Day 7 of s.c. apomorphine
[12] = Patient 01, Day 180, study termination
[13] = Patient 02, Day 7 of s.c. apomorphine
[14] = Patient 03, Day 7 of s.c. apomorphine
[15] = Patient 03, Day 180, treatment discontinued Day 84

Compound: COC(=O)C(c1ccccc1)C1CCCCN1 (stereo not drawn) [methylphenidate]
- Response to treatment [1]: no response to treatment

Compound: CN1CCc2cccc3c2[C@H]1Cc1ccc(O)c(O)c1-3 [apomorphine, (R)-5,6,6a,7-tetrahydro-6-methyl-4H-dibenzo[de,g]quinolin-10,11-diol]
- CNC ([2]; Patient 01, Day 0 (baseline)): 20
- CNC [2, 11]: 2
- CNC ([2]; Patient 01, Day 14): 0
- CNC ([2]; Patient 01, Day 21): 0
- CNC ([2]; Patient 01, Day 28): 0
- CNC ([2]; Patient 01, Day 42): 0
- CNC ([2]; Patient 01, Day 56): 0
- CNC ([2]; Patient 01, Day 70): 0
- CNC ([2]; Patient 01, Day 84): 0
- CNC [2, 12]: 0
- CNC ([2]; Patient 02, Day 0 (baseline)): 36
- CNC ([2]; Patient 02, Day 0 (baseline), listed as Apomorphine): 37
- CNC [2, 13]: 33
- CNC ([2]; Patient 02, Day 14): 24
- CNC ([2]; Patient 02, Day 21): 24
- CNC ([2]; Patient 02, Day 28): 24
- CNC ([2]; Patient 02, Day 42): 26
- CNC ([2]; Patient 03, Day 0 (baseline)): 33
- CNC [2, 14]: 22
- CNC ([2]; Patient 03, Day 14): 18
- CNC ([2]; Patient 03, Day 21): 12
- CNC ([2]; Patient 03, Day 28): 12
- CNC ([2]; Patient 03, Day 42): 16
- CNC ([2]; Patient 03, Day 56): 16
- CNC ([2]; Patient 03, Day 70): 12
- CNC ([2]; Patient 03, Day 84): 8
- CNC [2, 15]: 0
- Efficacy observation ([3]; Patient 01, Day 1, hours after initial dosing, 2 mg/h): moved right thumb to command
- Efficacy observation ([3]; Patient 01, Day 2, 4 mg/h): moved limbs on command and answered yes/no questions
- Efficacy observation ([3]; Patient 01, Day 3, 6 mg/h): Spoke by phone with sibling and named four friends in their room
- Efficacy observation ([3]; Patient 01, Day 4, 8 mg/h): named objects and associated them with their function
- Efficacy observation ([3]; Patient 01, Day 5, 8 mg/h): oriented to physician's last name and name of the institution
- Effect of pump remaining off for two hours ([3]; Patient 01, Day 18): decrease in their awareness status
- Time to regain “on” status after reconnection of the pump ([3]; Patient 01, Day 18): ≤ 15 min
- Effect of attempt to discontinue the treatment ([3]; Patient 01, Day 84): regressed to an “off” state
- Day of trial on which patient started to follow simple commands ([3]; Patient 02): 9
- Efficacy observation ([3]; Patient 02, first two weeks of drug administration, maintained until the bleeding event): improvement in the patient's consciousness state
- Efficacy observation ([3]; Patient 03, Day 2): started to vocalize words
- Efficacy observation ([3]; Patient 03, Day 62): started to clearly respond to commands, recognize family members, respond to their name and respond to their age
- Effect of first attempt to discontinue drug ([3]; Patient 03, Day 84): maintained their motor and cognitive improvements
- Overall efficacy on altered consciousness state ([3]; Patients 01, 02 and 03 after traumatic brain injury): effective at improving the altered consciousness state
- Absorption and clearance ([4]; from subcutaneous tissues): rapidly and completely absorbed from subcutaneous tissues and is rapidly cleared
- Absorption ([4]; parenterally administered): rapidly and completely absorbed
- DRS ([5]; Patient 01, Day 0 (baseline)): 21
- DRS [5, 11]: 13
- DRS ([5]; Patient 01, Day 14): 13
- DRS ([5]; Patient 01, Day 21): 12.5
- DRS ([5]; Patient 01, Day 28): 12.5
- DRS ([5]; Patient 01, Day 42): 12
- DRS ([5]; Patient 01, Day 56): 10.5
- DRS ([5]; Patient 01, Day 70): 10.5
- DRS ([5]; Patient 01, Day 84): 10
- DRS [5, 12]: 15
- DRS ([5]; Patient 02, Day 0 (baseline)): 26
- DRS [5, 13]: 24
- DRS ([5]; Patient 02, Day 14): 19
- DRS ([5]; Patient 02, Day 21): 22
- DRS ([5]; Patient 02, Day 28): 22
- DRS ([5]; Patient 03, Day 0 (baseline)): 23
- DRS [5, 14]: 22
- DRS ([5]; Patient 03, Day 14): 22
- DRS ([5]; Patient 03, Day 21): 22
- DRS ([5]; Patient 03, Day 28): 22
- DRS ([5]; Patient 03, Day 42): 22
- DRS ([5]; Patient 03, Day 56): 22
- DRS ([5]; Patient 03, Day 70): 22
- DRS ([5]; Patient 03, Day 84): 21
- DRS [5, 15]: 12
- Incidence of psychological effects ([6]; compared with other dopaminergic agents): lower incidence of psychological effects
- Injection site reaction ([6]; subcutaneous administration at a concentration of 10 mg/ml): nodule formation (panniculitis) may occur
- Patient outcome [7]: died
- Adverse event [8]: seizure
- Adverse events [8]: agitation and fever
- Dyskinesias and hallucinations after dose reduction [8]: disappeared
- ECG and clinical labs [8]: no abnormal values
- Tolerability of dose escalation ([8]; sc): well tolerated
- GOS-E ([9]; Patient 01, Day 7): 3
- GOS-E ([9]; Patient 01, Day 14): 3
- GOS-E ([9]; Patient 01, Day 84): 3
- GOS-E [9, 12]: 3
- GOS-E ([9]; Patient 03, Day 84): 3
- GOS-E ([9]; Patient 03, baseline): 2
- Affinity for D2-like dopamine receptors [10]: particularly high affinity
